{
  "source": "patent US20240124510A1",
  "about": "“Cyclic Glycoaminoacid Derivatives” (TFCHEM, priority 2021, published 2024)",
  "key": {"[1]": {"system": "normal human dermal fibroblasts (NHDF)", "experiment": "Signalling pathway analysis (Ingenuity Pathway Analysis, activation z-score)", "details": "for Activation z- score: 2 mg/ml on NHDF", "excerpt": "• Results are considered and presented per gene (and not probe). A probe set is a collection of probes designed to interrogate a given sequence of a gene. […] Gene Ontology database has been more specifically used for the data interpretation. DAVID functional annotation part was used to cluster modulated genes into significant biological processes. […] DAVID database uses the Gene Ontology consortium (http://www.geneontology.org) vocabularies (GO terms) to describe gene products in terms of their associated biological processes. Among them, only biological processes with p-value ≤0.05 were taken into account. • Signal transduction pathway analsis: The results were then processed with IPA (Ingenuity Pathway Analysis, Qiagen®) software to identify signal transduction pathways modulated by each treatment. This software takes into account the Fold Change values of each gene and, when there is enough information, the direction of modulation of the signal transduction pathways can be identified. The relevance of the effect of each treatment on a given pathway was quantified by z-score. The z-score predicts the directional change on that effect.\nA more advanced bioinformatics analysis was performed using the Ingenuity Pathway Analysis software (IPA from Qiagen®). This analysis allows the identification of the impacted signalling pathways and predicts their modulation. The modulation is a stimulation when the Activation z-score is a positive value (Table 11) and an inhibition when the Activation z-score is a negative value (Table 12)."}, "[2]": {"system": "neonatal skin fibroblasts (CCD-27SK)", "experiment": "Preservation/protection of neonatal skin fibroblasts under starvation conditions, neutral red uptake assay", "format": "cell-based, human", "details": "for Variation of viability (stressed cells treated with compound 6 vs stressed cells): 17 mM; for OD 540 nm - mean value (cell viability): starvation medium + 17 mM", "description": "The neonatal skin fibroblasts (Cell line: CCD-27SK. ATCC number CRL-1475) were grown with DMEM medium supplemented with Fetal Bovine Serum 10% final, antibiotics (Penicillin/Streptomycin) 1% final and Amphotericin B 0.1% final. Fibroblasts were grown in 75 cm^2 culture flask to 80% confluence in 37° C. and 10% CO2 incubator. The medium was changed every two days by 37° C. preheated fresh medium.\nThis medium was composed of 45% subculturing medium without Fetal Bovine Serum mixed with 55% of Phosphate Buffer Saline IX containing EDTA (final concentration of 0.45 mM). This was referred to as serum-free medium or starvation medium.\nCompound 6 (MM=356.3 g/mol) was diluted in starvation medium to 17 mM final and pH was adjusted at 7.4 by addition of NaOH 1N.\nFibroblast cells were concentrated to 2.10^5 cells/ml and 100 μl of cell suspension was added in wells of a 96-well plate and incubated in 37° C. and 10% CO2 incubator for 4 hours.\nAfter cell adhesion the medium was changed and plates were incubated (37° C.-10% CO2) to perform the assay as follows: • One plate for each sampling times: D0, D4, D7 days; • Three wells for each condition (triplicate count) added with 120 μl of culture medium (surviving control), starvation medium (serum-free control) or compound 6 solution at 17 mM.\nThe neutral red uptake assay was used for the determination of cell viability. This assay is based on the ability of viable cells to incorporate and bind the supravital dye neutral red in its lysosomes. Thus, only the viable cells are dyed. At D4 and D7, the plates were incubated with neutral red solution for 3.5 hours. The cells are subsequently washed, the dye is extracted in each well and the absorbance is read using a spectrophotometer.\nFor sampling, 1 mL of DMEM (without phenol red indicator) with neutral red (OD=0.110) was added to the cells for 3.5 hours (37° C. 10% CO2). After incubation. the medium was removed. Two washes with PBS were realized and 1 mL of extraction solution (absolute ethanol 49%, ultrapure water 49%, glacial acetic acid 2%) was added. Plates were placed 15 minutes on rotary shaker in the dark before reading OD at 540 nm.\nThe OD540 nm average values were compared and the variation of viability was calculated as follows:\nVariation of viability at Dx=(OD540 nm of tested solution−blank) at Dx/(OD540 nm of stress control−blank) at Dx."}, "[3]": {"system": "Normal human epidermal keratinocytes (NHEK)", "experiment": "Lipid peroxidation in NHEK under UV stimulation (C11-fluor probe, flow cytometry)", "format": "cell-based", "details": "for % Irradiated control (lipid peroxidation) / % Protection (lipid peroxidation) / C11-fluor 1/GMFI Mean (AU) / C11-fluor 1/GMFI (AU) / C11-fluor GMFI (AU): irradiated UVB 300 mJ/cm^2 (+UVA 2.1 J/cm^2); for C11-fluor 1/GMFI (AU) / C11-fluor GMFI (AU): individual replicates", "description": "Normal human epidermal keratinocytes were seeded in 48-well plates and cultured in culture medium for 24 hours and then in assay medium for a further 24 hours. The medium was then removed and replaced by assay medium containing or not (irradiated control) the test compounds or the reference (BHA—butylated hydroxyanisole, lipid peroxidation inhibitor—at 100 μM) and the cells were pre-incubated for 24 hours. After pre-incubation, the specific fluorescent probe for the measurement of lipid peroxides (C11-fluor) was added and the cells were incubated for 45 minutes. Then, the medium was removed and replaced by assay medium containing or not (irradiated control and test compound conditions) the reference and the cells were irradiated with UVB (+UVA)−300 mJ/cm^2 (+2.1 J/cm^2). The lamp used was a SOL500 Sun Simulator equipped with an H2 filter (Dr. Hbnle. AG). After irradiation, the medium was removed and replaced by assay medium containing or not (irradiated control) the test compounds or the reference and the cells were incubated for 30 minutes before flow cytometry analysis. A non-irradiated control condition was performed in parallel. All experimental conditions were performed in triplicate.\nAt the end of the incubation, in each well, the cells were trypsinized and transferred into specific tubes for the analysis of C11-fluor fluorescence intensity using a BD FACSVerse™ flow cytometer (acquisition of 2000 to 5000 events per tube). The C11-fluor fluorescent probe is a lipid analogue which integrates cell membranes. As the fluorescence intensity of this probe is decreased with oxidation, it is inversely proportional to the lipid peroxidation. In order to facilitate the result interpretation, the lipid peroxidation was expressed using the value “1/fluorescence intensity” in order to have a direct proportionality between the induction of lipid peroxidation and the values of “% of irradiated control”.\nResults presented in Table 24 are expressed as fluorescence intensity and as […] of protection compared to the control."}},
  "note": "Where “and” joins values, the source holds several entries; their conditions need not be identical. Equal values may be shown once.",
  "data": [
    {"smiles": "N[C@H]1CCCN(CC(F)(F)[C@]2(O)O[C@H](CO)[C@H](O)[C@H](O)[C@H]2O)C1=O", "note": "[Compound 6]", "values": [
      {"measurement": "Activation z- score", "setting": "[1]; Diseases or Functions Annotation: Differentiation of adipocytes", "result": 0.545},
      {"measurement": "Activation z- score", "setting": "[1]; Diseases or Functions Annotation: Metabolism of cholesterol", "result": 1.421},
      {"measurement": "Activation z- score", "setting": "[1]; Diseases or Functions Annotation: Synthesis of cholesterol", "result": 0.998},
      {"measurement": "Activation z- score", "setting": "[1]; Diseases or Functions Annotation: Synthesis of lipids, z-score >0 = increased", "result": 1.380},
      {"measurement": "Regulation of fibrogenesis, tensile strength of skin, synthesis of ROS, inflammatory response and chronic inflammatory disorder at a transcriptional level", "setting": "[1]; treatment of NHDF", "result": "down regulation"},
      {"measurement": "Regulation of lipid and cholesterol synthesis and differentiation of adipocytes at a transcriptional level", "setting": "[1]; treatment of NHDF", "result": "up regulation"},
      {"measurement": "Variation of viability (stressed cells treated with compound 6 vs stressed cells)", "setting": "[2]; D 4", "result": "2.3 and 2.32"},
      {"measurement": "OD 540 nm - mean value (cell viability)", "setting": "[2]; D 4", "result": 0.274},
      {"measurement": "Variation of viability (stressed cells treated with compound 6 vs stressed cells)", "setting": "[2]; D 7", "result": "3.4 and 3.39"},
      {"measurement": "OD 540 nm - mean value (cell viability)", "setting": "[2]; D 7", "result": 0.224},
      {"measurement": "% Irradiated control (lipid peroxidation)", "setting": "[3]; 1 mg/ml", "result": 66, "unit": "%"},
      {"measurement": "% Protection (lipid peroxidation)", "setting": "[3]; 1 mg/ml", "result": 37, "unit": "%"},
      {"measurement": "C11-fluor 1/GMFI Mean (AU)", "setting": "[3]; 1 mg/ml", "result": "5.6E−04", "unit": "AU"},
      {"measurement": "C11-fluor 1/GMFI (AU)", "setting": "[3]; 1 mg/ml", "result": "4.7E−04 AU and 5.9E−04 AU and 6.2E−04 AU"},
      {"measurement": "C11-fluor GMFI (AU)", "setting": "[3]; 1 mg/ml", "result": "2118 AU and 1705 AU and 1608 AU"},
      {"measurement": "% Irradiated control (lipid peroxidation)", "setting": "[3]; 3 mg/ml", "result": 65, "unit": "%"},
      {"measurement": "% Protection (lipid peroxidation)", "setting": "[3]; 3 mg/ml", "result": 38, "unit": "%"},
      {"measurement": "C11-fluor 1/GMFI Mean (AU)", "setting": "[3]; 3 mg/ml", "result": "5.6E−04", "unit": "AU"},
      {"measurement": "C11-fluor 1/GMFI (AU)", "setting": "[3]; 3 mg/ml", "result": "4.7E−04 AU and 5.1E−04 AU and 7.0E−04 AU"},
      {"measurement": "C11-fluor GMFI (AU)", "setting": "[3]; 3 mg/ml", "result": "2143 AU and 1970 AU and 1426 AU"},
      {"measurement": "Protection on lipid peroxidation (compared to the control)", "setting": "[3]; NHEK irradiated with UVB (+UVA) 300 mJ/cm2 (+2.1 J/cm2), concentration not given", "result": 38, "unit": "%"}
    ]}
  ]
}
